According to US11925655B2, “FAP-activated therapeutic agents, and uses related thereto” (Bach Biosciences, LLC, priority 2014, dated 2024):
pEC50, pIC50: −log10 of the molar value. Like-named read-outs stand apart in the source and are kept apart here.

Assays:
HEK-Mock = assay: Cytotoxicity against tumor lines: HEK-Mock; assay type: cell-based; conditions: Homo sapiens, compound alone
Method: (§1) Cells from various tumor-derived cell lines were incubated with doxorubicin or 3099DOX, the latter in the presence or absence of FAP, and the EC50 for each was determined.

HEK-mFAP = assay: Cytotoxicity against tumor lines: HEK-mFAP; assay type: cell-based; conditions: Homo sapiens, compound alone
Method: as §1

BxPC-3 = assay: Cytotoxicity against tumor lines: BxPC-3; assay type: cell-based; conditions: Homo sapiens, compound alone
Method: as §1

HPAF-II = assay: Cytotoxicity against tumor lines: HPAF-II; assay type: cell-based; conditions: Homo sapiens, compound alone
Method: as §1

HT-29 = assay: Cytotoxicity against tumor lines: HT-29; assay type: cell-based; conditions: Homo sapiens, compound alone
Method: as §1

HEK-Mock cells = assay: CellTiter-Blue cell viability assay with HEK-Mock cells; assay type: cell-based; conditions: Homo sapiens, 72 h
HEK-mFAP cells = assay: CellTiter-Blue cell viability assay with HEK-mFAP cells; assay type: cell-based, human
MCF-7 = assay: CellTiter-Blue cell viability assay: MCF-7; assay type: cell-based; conditions: Homo sapiens
OVCAR-3 = assay: CellTiter-Blue cell viability assay: OVCAR-3; assay type: cell-based; conditions: Homo sapiens, 5061DOX assay 2, 72 hour incubation
SK-OV-3 = assay: CellTiter-Blue cell viability assay: SK-OV-3; assay type: cell-based; conditions: Homo sapiens, 5061DOX assay 2, 72 hour incubation
FAP = biological target: T1, FAP (Mus musculus, UniProt P97321); assay: Inhibition of FAP activity on HEK-mFAP cells; assay type: cell-based; conditions: 5061DOX assay 3
T1 construct: host or cells: HEK (human embryonic kidney) cells, stably transfected
T1 sequence (P97321 1-761): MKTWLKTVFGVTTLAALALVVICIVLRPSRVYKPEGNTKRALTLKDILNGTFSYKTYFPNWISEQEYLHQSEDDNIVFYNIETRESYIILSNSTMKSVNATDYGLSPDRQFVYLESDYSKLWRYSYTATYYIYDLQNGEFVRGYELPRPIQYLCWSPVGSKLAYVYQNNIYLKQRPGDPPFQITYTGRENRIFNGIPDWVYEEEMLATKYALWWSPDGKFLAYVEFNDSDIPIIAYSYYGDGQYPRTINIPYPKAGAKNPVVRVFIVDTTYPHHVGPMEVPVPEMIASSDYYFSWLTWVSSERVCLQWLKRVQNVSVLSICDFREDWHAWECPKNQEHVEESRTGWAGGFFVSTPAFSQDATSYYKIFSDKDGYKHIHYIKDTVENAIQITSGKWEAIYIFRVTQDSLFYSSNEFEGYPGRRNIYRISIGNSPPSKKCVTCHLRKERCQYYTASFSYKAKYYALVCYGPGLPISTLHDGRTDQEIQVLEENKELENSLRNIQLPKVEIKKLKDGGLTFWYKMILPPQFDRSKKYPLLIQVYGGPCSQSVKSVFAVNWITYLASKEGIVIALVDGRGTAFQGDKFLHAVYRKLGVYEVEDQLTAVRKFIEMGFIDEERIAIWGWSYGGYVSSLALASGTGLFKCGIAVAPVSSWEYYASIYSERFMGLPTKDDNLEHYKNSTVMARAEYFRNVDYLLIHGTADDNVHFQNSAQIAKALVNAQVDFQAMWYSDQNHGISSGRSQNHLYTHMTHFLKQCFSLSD

[1] = read-out: EC50 (doxorubicin alone)
[2] = 5061DOX assay 2, 72 hour incubation, read-out: EC50 (prodrug alone)
[3] = read-out: EC50 (prodrug + 25 nM FAP)
[4] = read-out: EC50 (prodrug + 100 uM 5057)

Q: With `COc1cccc2c1C(=O)c1c(O)c3c(c(O)c1C2=O)C[C@@](O)(C(=O)CO)C[C@@H]3O[C@H]1C[C@H](N)[C@H](O)[C@H](C)O1` [doxorubicin, reference compound] as the compound, how does the pEC50 (HEK-Mock) read?
A: Its pEC50 is 7.30.

Q: What about the pEC50 (HEK-mFAP) of the same compound?
A: The pEC50 was 6.70.

Q: What about the pEC50 (BxPC-3) of the same compound?
A: The pEC50 was 5.51.

Q: And the pEC50 (HPAF-II)?
A: The pEC50 was 5.70.

Q: And the pEC50 (HT-29)?
A: The pEC50 was 6.40.

Q: What about the pEC50 (HEK-Mock cells; 5057DOX assay 1, 72 hour incubation, read-out: EC50 (doxorubicin alone)) of the same compound?
A: Its pEC50 is 7.44.

Q: And the pEC50 (HEK-Mock cells; 5057DOX assay 2, 72 hour incubation, read-out: EC50 (doxorubicin alone))?
A: Its pEC50 is 7.47.

Q: And the pEC50 (HEK-Mock cells; 5057DOX assay 3, 72 hour incubation, read-out: EC50 (doxorubicin alone))?
A: Its pEC50 is 7.02.

Q: What about the pEC50 (HEK-Mock cells; 5057DOX assay 4, 72 hour incubation, read-out: EC50 (doxorubicin alone)) of the same compound?
A: The pEC50 was 7.04.

Q: What about the pEC50 (HEK-Mock cells; 5061DOX assay 1, 72 hour incubation, read-out: EC50 (doxorubicin alone)) of the same compound?
A: Its pEC50 is 7.04.

Q: And the pEC50 (HEK-mFAP cells; Homo sapiens, 72 h, 5057DOX assay 2, 72 hour incubation, read-out: EC50 (doxorubicin alone))?
A: Its pEC50 is 7.23.

Q: And the pEC50 (HEK-mFAP cells; Homo sapiens, 72 h, 5057DOX assay 3, 72 hour incubation, read-out: EC50 (doxorubicin alone))?
A: The pEC50 was 6.62.

Q: And the pEC50 (HEK-mFAP cells; Homo sapiens, 72 h, 5057DOX assay 4, 72 hour incubation, read-out: EC50 (doxorubicin alone))?
A: The pEC50 was 6.38.

Q: What about the pEC50 (HEK-mFAP cells; Homo sapiens, 72 h, 5057DOX assay 8, 72 hour incubation, read-out: EC50 (doxorubicin)) of the same compound?
A: Its pEC50 is 6.40.

Q: And the pEC50 (HEK-mFAP cells; Homo sapiens, 72 h, 5061DOX assay 1, 72 hour incubation, read-out: EC50 (doxorubicin alone))?
A: Its pEC50 is 6.38.

Q: What about the pEC50 (HEK-mFAP cells; Homo sapiens, 72 h, 5107DOX assay, 72 hour incubation, read-out: EC50 (doxorubicin)) of the same compound?
A: Its pEC50 is 6.41.

Q: And the pEC50 (MCF-7; MCF7, 5057DOX assay 5, 72 hour incubation, read-out: EC50 (doxorubicin alone))?
A: The pEC50 was 4.27.

Q: And the pEC50 (OVCAR-3; [1])?
A: Its pEC50 is 5.77.

Q: What about the pEC50 (SK-OV-3; [1]) of the same compound?
A: Its pEC50 is 6.36.

Q: Which results are given for `COc1cccc2c1C(=O)c1c(O)c3c(c(O)c1C2=O)C[C@@](O)(C(=O)CO)C[C@@H]3OC1CC(NC(=O)[C@@H]2CCCN2C(=O)[C@@H](C)NC(=O)c2ccnc3cccc(Br)c23)C(O)C(C)O1` (stereo partly drawn) [Compound 5061DOX]?
A: pEC50 (HEK-Mock cells; 5061DOX assay 1, 72 hour incubation, read-out: EC50 (prodrug + 25 nM FAP)): 6.55; pEC50 (HEK-Mock cells; 5061DOX assay 1, 72 hour incubation, read-out: EC50 (prodrug + 50 nM PREP)): < 4.00; pEC50 (HEK-Mock cells; 5061DOX assay 1, 72 hour incubation, read-out: EC50 (prodrug + 100 uM 5057)): < 4.00; pEC50 (HEK-Mock cells; 5061DOX assay 1, 72 hour incubation, read-out: EC50 (prodrug alone)): < 4.00; pEC50 (HEK-Mock cells; 5061DOX assay 2, 72 hour incubation, read-out: EC50 (prodrug + 25 nM FAP)): 6.60; pEC50 (HEK-Mock cells; [2]): < 4.00; pEC50 (HEK-mFAP cells; 5061DOX assay 2, 72 hour incubation, read-out: EC50 (prodrug + 100 uM 5057)): < 4.00; pEC50 (HEK-mFAP cells; [2]): < 4.00; pEC50 (HEK-mFAP cells; Homo sapiens, 5061DOX assay 1, 72 hour incubation, read-out: EC50 (prodrug + 100 uM 5057)): < 4.00; pEC50 (HEK-mFAP cells; Homo sapiens, 5061DOX assay 1, 72 hour incubation, read-out: EC50 (prodrug alone)): < 4.00; pEC50 (MCF-7; MCF7, 5061DOX assay 2, 72 hour incubation, read-out: EC50 (prodrug + 25 nM FAP)): < 4.00; pEC50 (MCF-7; MCF7, 5061DOX assay 2, 72 hour incubation, read-out: EC50 (prodrug + 100 uM 5057)): < 4.00; pEC50 (MCF-7; MCF7, 5061DOX assay 2, 72 hour incubation, read-out: EC50 (prodrug alone)): < 4.00; pEC50 (OVCAR-3; [3]): 5.82; pEC50 (OVCAR-3; [4]): < 4.00; pEC50 (OVCAR-3; read-out: EC50 (prodrug alone)): < 4.00; pEC50 (SK-OV-3; [3]): 6.05; pEC50 (SK-OV-3; [4]): < 4.00; pEC50 (SK-OV-3; read-out: EC50 (prodrug alone)): < 4.00; pIC50 (FAP): < 5.00
